Measurements: patent US10344025B2, “GLS1 inhibitors for treating disease” (Board of Regents, The University of Texas System, priority 2014, dated 2019)

Tests used:
A549 cells = test: Proliferation Assay (A549 viability, Cell Titer Fluor, 72 hours); format: cell-based; settings: Homo sapiens, A549, 72 h
In short: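 Cell Titer Fluor fluorescence after 72 h compound treatment (0.5% DMSO, 37 °C, 5% CO2) of A549 cells plated 24 h earlier at 1000/well. Four-parameter logistic fitting gave IC50.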

[1] = target: purified recombinant human GAC (GLS1) (Homo sapiens (Human), UniProt O94925); test: GLS1 Enzymatic Activity Assay (dual-coupled enzymatic assay, resorufin/Amplex UltraRed readout); format: biochemical;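 note: glutamate from GAC coupled via glutamate oxidase and peroxidase to resorufin, read as fluorescence (ex 530, em 590 nm) kinetically or at 20 min, four-parameter logistic IC50 fit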
Sequence of purified recombinant human GAC (GLS1) (O94925 other isoform, or with tags, fused parts or gaps): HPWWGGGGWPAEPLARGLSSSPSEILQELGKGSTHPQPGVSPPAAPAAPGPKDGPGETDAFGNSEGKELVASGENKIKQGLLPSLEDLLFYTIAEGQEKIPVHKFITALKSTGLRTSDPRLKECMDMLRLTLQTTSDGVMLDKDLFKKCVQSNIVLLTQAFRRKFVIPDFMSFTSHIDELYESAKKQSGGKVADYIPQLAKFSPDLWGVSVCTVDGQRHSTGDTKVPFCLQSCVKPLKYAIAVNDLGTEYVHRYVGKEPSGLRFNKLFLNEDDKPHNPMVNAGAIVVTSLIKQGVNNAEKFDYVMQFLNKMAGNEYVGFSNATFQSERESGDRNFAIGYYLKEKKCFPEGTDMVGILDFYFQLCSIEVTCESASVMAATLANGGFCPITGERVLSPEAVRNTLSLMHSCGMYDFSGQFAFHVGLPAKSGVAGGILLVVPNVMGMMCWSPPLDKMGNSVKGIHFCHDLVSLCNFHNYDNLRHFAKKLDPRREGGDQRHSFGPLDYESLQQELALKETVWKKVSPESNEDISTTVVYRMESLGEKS

For `CNC(=O)c1cn(CC(F)CCc2ccc(NC(=O)Cc3ccccc3)nn2)nn1` (centres unmarked) [Example 244, 1-(2-fluoro-4-(6-(2-phenylacetamido)pyridazin-3-yl)butyl)-N-methyl-1H-1,2,3-triazole-4-carboxamide], the EC50 (A549 cells) was < 100 nM and the IC50 [1] was < 100 nM.

In the case of `O=C(Cc1cccnc1)Nc1ccc(CCCCc2nnc(C(=O)NCCc3ccccc3)s2)nn1` [Example 27], the EC50 (A549 cells) is reported as < 100 nM and the IC50 [1] is reported as < 100 nM.

`CC(C)(C)OC(=O)N1CC(CNC(=O)c2nnc(CCCCn3cc(C(=O)NCc4cccc(OC(F)(F)F)c4)nn3)s2)C1` [Example 73, tert-butyl 3-{[(5-{4-[4-({[3-(trifluoromethoxy)phenyl]methyl}carbamoyl)-1H-1,2,3-triazol-1-yl]butyl}-1,3,4-thiadiazol-2-yl)formamido]methyl}azetidine-1-carboxylate] was tested, and the EC50 (A549 cells) was < 100 nM and the IC50 [1] was < 100 nM.

With `O=C(NCc1cccc(N2CCCC2)c1)c1cn(CCCCn2cc(C(=O)NCc3cc(C(F)(F)F)ccn3)nn2)nn1` [Example 124, 1-{4-[4-({[3-(pyrrolidin-1-yl)phenyl]methyl}carbamoyl)-1H-1,2,3-triazol-1-yl]butyl}-N-{[4-(trifluoromethyl)pyridin-2-yl]methyl}-1H-1,2,3-triazole-4-carboxamide] the EC50 (A549 cells) was < 100 nM and the IC50 [1] was < 100 nM.

`O=C(Cc1nccs1)Nc1nnc(CCC(F)Cn2cc(C(=O)NCc3cc(OC(F)(F)F)ccc3F)nn2)s1` (centres unmarked) [Example 573, 1-(2-fluoro-4-(5-(2-(thiazol-2-yl)acetamido)-1,3,4-thiadiazol-2-yl)butyl)-N-(2-fluoro-5-(trifluoromethoxy)benzyl)-1H-1,2,3-triazole-4-carboxamide] was tested, and the EC50 (A549 cells) was < 100 nM and the IC50 [1] was < 100 nM.

With `Cc1ccc(CNC(=O)c2cn(CCC(F)Cn3cc(C(=O)NCc4cc(OC(F)(F)F)ccc4F)nn3)nn2)cn1` (centres unmarked) [Example 370, 1-{3-fluoro-4-[4-({[2-fluoro-5-(trifluoromethoxy)phenyl]methyl}carbamoyl)-1H-1,2,3-triazol-1-yl]butyl}-N-[(6-methylpyridin-3-yl)methyl]-1H-1,2,3-triazole-4-carboxamide] the EC50 (A549 cells) was < 100 nM and the IC50 [1] was < 100 nM.

In the case of `O=C(Cc1ccccc1)Nc1nnc(CCCCCn2cc(C(=O)NCc3ccccc3)nn2)s1` [Example 4, N-Benzyl-1-(5-(5-(2-phenylacetamido)-1,3,4-thiadiazol-2-yl)pentyl)-1H-1,2,3-triazole-4-carboxamide], the EC50 (A549 cells) is reported as 100 to 500 nM and the IC50 [1] is reported as 100 to 500 nM.

In the case of `O=C(Cc1cccc(OC(F)(F)F)c1)Nc1ccc(CCCCc2nnc(C(=O)NCCO)s2)nn1` [Example 37, N-(2-hydroxyethyl)-5-[4-(6-{2-[3-(trifluoromethoxy)phenyl]acetamido}pyridazin-3-yl)butyl]-1,3,4-thiadiazole-2-carboxamide], the EC50 (A549 cells) is reported as < 100 nM and the IC50 [1] is reported as < 100 nM.

With `CNC(=O)c1cn(CCC(F)Cn2cc(C(=O)NCc3ccccn3)nn2)nn1` (centres unmarked) [Example 163, 1-(3-fluoro-4-{4-[(pyridin-2-ylmethyl)carbamoyl]-1H-1,2,3-triazol-1-yl}butyl)-N-methyl-1H-1,2,3-triazole-4-carboxamide] the EC50 (A549 cells) was 500 to 5000 nM and the IC50 [1] was 500 to 5000 nM.

With `Cc1ccc(CNC(=O)c2nnc(CCC(F)Cn3cc(C(=O)NCc4cccc(OC(F)(F)F)c4)nn3)s2)cn1` (centres unmarked) [Example 442, 5-{3-fluoro-4-[4-({[3-(trifluoromethoxy)phenyl]methyl}carbamoyl)-1H-1,2,3-triazol-1-yl]butyl}-N-[(6-methylpyridin-3-yl)methyl]-1,3,4-thiadiazole-2-carboxamide] the EC50 (A549 cells) was < 100 nM and the IC50 [1] was < 100 nM.

With `O=C(NCc1cc(OC(F)(F)F)ccc1F)c1cn(CCC(F)Cn2cc(C(=O)NCc3cc(C(F)(F)F)ccn3)nn2)nn1` (centres unmarked) [Example 426, 1-{2-fluoro-4-[4-({[2-fluoro-5-(trifluoromethoxy)phenyl]methyl}carbamoyl)-1H-1,2,3-triazol-1-yl]butyl}-N-{[4-(trifluoromethyl)pyridin-2-yl]methyl}-1H-1,2,3-triazole-4-carboxamide] the EC50 (A549 cells) was < 100 nM and the IC50 [1] was < 100 nM.

`O=C(NCc1cccc(OC(F)(F)F)c1)c1cn(CCCCc2nnc(C(=O)NCc3cc(C(F)(F)F)ccn3)s2)nn1` [Example 75, 5-{4-[4-({[3-(trifluoromethoxy)phenyl]methyl}carbamoyl)-1H-1,2,3-triazol-1-yl]butyl}-N-{[4-(trifluoromethyl)pyridin-2-yl]methyl}-1,3,4-thiadiazole-2-carboxamide] was tested, and the EC50 (A549 cells) was < 100 nM and the IC50 [1] was < 100 nM.

`O=C(Cc1cccc(OC(F)(F)F)c1)Nc1nnc(CCC(F)Cn2cc(C(=O)NCc3ccccn3)nn2)s1` (centres unmarked) [Example 533, 1-[2-fluoro-4-(5-{2-[3-(trifluoromethoxy)phenyl]acetamido}-1,3,4-thiadiazol-2-yl)butyl]-N-(pyridin-2-ylmethyl)-1H-1,2,3-triazole-4-carboxamide] was tested, and the EC50 (A549 cells) was < 100 nM and the IC50 [1] was < 100 nM.

`O=C(CN1CC(F)(F)C1)Nc1cn(CC(F)CCn2cc(C(=O)NCc3cccc(OC(F)(F)F)c3)nn2)nn1` (centres unmarked) [Example 391, 1-(4-{4-[2-(3,3-difluoroazetidin-1-yl)acetamido]-1H-1,2,3-triazol-1-yl}-3-fluorobutyl)-N-{[3-(trifluoromethoxy)phenyl]methyl}-1H-1,2,3-triazole-4-carboxamide] was tested, and the EC50 (A549 cells) was 100 to 500 nM and the IC50 [1] was < 100 nM.

In the case of `O=C(Cc1cc(OC(F)(F)F)ccc1F)Nc1nnc(CCC(F)Cn2cc(C(=O)NCc3cc(C(F)(F)F)ccn3)nn2)s1` (centres unmarked) [Example 517, 1-[2-fluoro-4-(5-{2-[2-fluoro-5-(trifluoromethoxy)phenyl]acetamido}-1,3,4-thiadiazol-2-yl)butyl]-N-{[4-(trifluoromethyl)pyridin-2-yl]methyl}-1H-1,2,3-triazole-4-carboxamide], the EC50 (A549 cells) is reported as < 100 nM and the IC50 [1] is reported as < 100 nM.

For `CC(C)COC(=O)NCc1cn(CCCCn2cc(C(=O)NCc3cccc(OC(F)(F)F)c3)nn2)nn1` [Example 56, 2-methylpropyl N-[(1-{4-[4-({[3-(trifluoromethoxy)phenyl]methyl}carbamoyl)-1H-1,2,3-triazol-1-yl]butyl}-1H-1,2,3-triazol-4-yl)methyl]carbamate], the EC50 (A549 cells) was < 100 nM and the IC50 [1] was < 100 nM.

With `O=C(Cc1cccc(OC(F)(F)F)c1)Nc1nnc(CCCCn2cc(C(=O)N[C@@H](CO)c3ccccc3)nn2)s1` [Example 21, N-[(1R)-2-hydroxy-1-phenylethyl]-1-[4-(5-{2-[3-(trifluoromethoxy)phenyl]acetamido}-1,3,4-thiadiazol-2-yl)butyl]-1H-1,2,3-triazole-4-carboxamide] the EC50 (A549 cells) was 100 to 500 nM and the IC50 [1] was < 100 nM.

For `Cc1ccc(CC(=O)Nc2cn(CCCCn3cc(C(=O)NCc4ccccn4)nn3)nn2)cn1` [Example 306, 1-(4-{4-[2-(6-methylpyridin-3-yl)acetamido]-1H-1,2,3-triazol-1-yl}butyl)-N-(pyridin-2-ylmethyl)-1H-1,2,3-triazole-4-carboxamide], the EC50 (A549 cells) was 500 to 5000 nM and the IC50 [1] was 100 to 500 nM.

With `CC(=O)Nc1nnc(CCC(F)Cn2cc(C(=O)NCc3cc(C(F)(F)F)ccn3)nn2)s1` (centres unmarked) [Example 567, 1-(4-(5-acetamido-1,3,4-thiadiazol-2-yl)-2-fluorobutyl)-N-((4-(trifluoromethyl)pyridin-2-yl)methyl)-1H-1,2,3-triazole-4-carboxamide] the EC50 (A549 cells) was 100 to 500 nM and the IC50 [1] was < 100 nM.
